The record followed here is PubChem BioAssay (NCI).

Some test systems named below: HCT-116 colon; DU-145 prostate; UO-31 renal; ACHN renal; SK-OV-3 ovarian; LOX IMVI melanoma; OVCAR-5 ovarian; NCI/ADR-RES ovarian; NCI-H522 lung; T-47D breast; SF-268 CNS.
Common to all, as to assay: growth of human tumour cells (NCI), 48 h

Several values for one entry are separate records, joined by “and”; a condition that tells them apart may be missing. Identical values can stand only once.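 Test compounds were applied to cells in 96-well plates for 48 hours at 5 doses. GI50 is the concentration that inhibits growth by half. TGI: total growth inhibition.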

Consider `CC(=O)NC1C(OCc2ccccc2)OC(CO)C(O)C1OC(C)C(=O)NC(C)C(=O)NC(CCC(=O)NCCCCNc1c2ccccc2nc2cccc([N+](=O)[O-])c12)C(N)=O` (stereo not given), for which the TGI in the assay with HCT-116 colon amounted to 0.068 µM; in the assay on DU-145 prostate, 0.049 µM; in the assay on UO-31 renal, 0.339 µM; with ACHN renal, 0.0664 µM; in the assay on SK-OV-3 ovarian it was 3.55 µM; in the assay with LOX IMVI melanoma, 0.548 µM. In addition, the TGI is 1.65 µM with OVCAR-5 ovarian; 0.524 µM with NCI/ADR-RES ovarian; 0.286 µM with NCI-H522 lung; 0.961 µM with T-47D breast; 0.316 µM with SF-268 CNS.
Turning to `CCOC(=O)NNC(=O)NCc1cccc(CNC(=O)NNC(=O)OCC)c1`, the TGI in the assay on HCT-116 colon, with DU-145 prostate, in the assay with UO-31 renal, with SK-OV-3 ovarian, in the assay with LOX IMVI melanoma and with OVCAR-5 ovarian was > 100 µM throughout. The TGI with NCI/ADR-RES ovarian, in the assay on NCI-H522 lung, in the assay on T-47D breast and with SF-268 CNS was > 100 µM each time.
With `O=[N+]([O-])c1ccc(OC2CC3C4C=CC3C2C4)c([N+](=O)[O-])c1` (stereo not given), the GI50 is 66.2 µM and > 31.6 µM with HCT-116 colon; > 100 µM in the assay with UO-31 renal; 68.5 µM and > 31.6 µM with SK-OV-3 ovarian; > 100 µM in the assay with LOX IMVI melanoma; > 100 µM with OVCAR-5 ovarian; 76.4 µM and > 31.6 µM with NCI/ADR-RES ovarian. Besides, the GI50 with T-47D breast and in the assay with SF-268 CNS was > 100 µM in each case. Further, the TGI with HCT-116 colon, in the assay on DU-145 prostate, with UO-31 renal, in the assay with ACHN renal, in the assay on SK-OV-3 ovarian and with LOX IMVI melanoma was > 100 µM in each case. Besides, the TGI with OVCAR-5 ovarian, in the assay on NCI/ADR-RES ovarian, in the assay with NCI-H522 lung, in the assay on T-47D breast and in the assay with SF-268 CNS was > 100 µM in each case.
Consider `CC(C)(C)C1=CC(C)(n2[nH]c(=O)n(-c3ccccc3)c2=O)C=C(C(C)(C)C)C1=O`, for which the TGI in the assay with HCT-116 colon, in the assay with DU-145 prostate, in the assay on UO-31 renal, in the assay on ACHN renal, in the assay on SK-OV-3 ovarian and in the assay with LOX IMVI melanoma was > 100 µM throughout. Further, the TGI in the assay on NCI/ADR-RES ovarian, with NCI-H522 lung, with T-47D breast and with SF-268 CNS was > 100 µM each time.
With `C[N+]12C=CC=C1C(N1CCCC1)c1scc(-c3ccccc3)c12` (stereo not given), the TGI in the assay on HCT-116 colon, in the assay with DU-145 prostate, with UO-31 renal, with SK-OV-3 ovarian, with LOX IMVI melanoma and in the assay on OVCAR-5 ovarian was > 100 µM in each case. In addition, the TGI is > 100 µM in the assay with NCI/ADR-RES ovarian, 29.7 µM in the assay on NCI-H522 lung, 78.4 µM with T-47D breast and > 100 µM in the assay with SF-268 CNS.
Consider `CCCCc1ccc(-n2sc3ncc(C)cc3c2=O)cc1`, for which the TGI in the assay on HCT-116 colon is > 100 µM; in the assay with DU-145 prostate, > 100 µM; with UO-31 renal, 20.2 µM; in the assay on ACHN renal it was > 100 µM; in the assay with SK-OV-3 ovarian it was > 100 µM; in the assay on LOX IMVI melanoma, 72.3 µM. The TGI was 57.6 µM in the assay on OVCAR-5 ovarian, 72 µM with NCI/ADR-RES ovarian, 40.6 µM in the assay with NCI-H522 lung and 63.1 µM with T-47D breast.
In the case of `CC1(C)CC[C@]2(C)CC[C@]3(C)C(=CC[C@@H]4[C@@]5(C)CCC(=O)C(C)(C)[C@@H]5[C@H](O)C[C@]43C)[C@@H]2C1`, the TGI was 30.5 µM in the assay with HCT-116 colon; 34.4 µM with DU-145 prostate; 30.6 µM in the assay with ACHN renal; 31.7 µM in the assay on SK-OV-3 ovarian; 32.8 µM with LOX IMVI melanoma; 30.7 µM in the assay on OVCAR-5 ovarian. Moreover, the TGI with NCI/ADR-RES ovarian was determined as 38.6 µM; with NCI-H522 lung, 31.9 µM; with T-47D breast, 37.7 µM; in the assay on SF-268 CNS, 32 µM.
As to `COC(=O)c1cc2c(c3c1CC(Cc1ccccc1)C3=O)CCC2` (stereo not given), the TGI in the assay with HCT-116 colon, in the assay on DU-145 prostate, in the assay with ACHN renal, with SK-OV-3 ovarian, in the assay with LOX IMVI melanoma and with OVCAR-5 ovarian was > 100 µM each time. The TGI with NCI/ADR-RES ovarian, in the assay on NCI-H522 lung, in the assay with T-47D breast and in the assay on SF-268 CNS was > 100 µM each time.
As for `CCOC(=O)c1nc2cc(C(F)(F)F)ccc2nc1Nc1ccc(OC)cc1`, the TGI with HCT-116 colon, with DU-145 prostate, with UO-31 renal, in the assay with ACHN renal, in the assay on LOX IMVI melanoma and in the assay with OVCAR-5 ovarian was > 100 µM each time. The TGI in the assay with NCI/ADR-RES ovarian, in the assay with NCI-H522 lung, with T-47D breast and with SF-268 CNS was > 100 µM each time.
For `O=[N+]([O-])c1ccc(-c2nc3ccc(Cl)cc3[nH]2)cc1`, the TGI in the assay on HCT-116 colon, in the assay with DU-145 prostate, in the assay with UO-31 renal, in the assay on ACHN renal, in the assay on SK-OV-3 ovarian and with LOX IMVI melanoma was > 100 µM each time. In addition, the TGI in the assay with NCI/ADR-RES ovarian, in the assay on NCI-H522 lung, in the assay on T-47D breast and with SF-268 CNS was > 100 µM in each case.
`CCc1c(C)c(C#N)c(=S)n(C2OC(COC(C)=O)C(OC(C)=O)C(OC(C)=O)C2OC(C)=O)c1-c1ccccc1` (stereo not given): the TGI with HCT-116 colon, with DU-145 prostate, in the assay on UO-31 renal, with ACHN renal, in the assay with LOX IMVI melanoma and in the assay with OVCAR-5 ovarian was > 31.6 µM each time. The TGI in the assay on NCI/ADR-RES ovarian, with NCI-H522 lung, with T-47D breast and in the assay with SF-268 CNS was > 31.6 µM in each case.
As to `CC1(C)OCC([C@H]2O[C@@H](CC(=S)NCCCCCCCCCCCCNC(=S)C[C@H]3O[C@@H](C4COC(C)(C)O4)[C@H]4OC(C)(C)O[C@H]43)[C@H]3OC(C)(C)O[C@H]32)O1` (stereo not given in full), the TGI with HCT-116 colon was > 100 µM; in the assay with DU-145 prostate it was > 100 µM; in the assay with UO-31 renal, 95 µM; in the assay with ACHN renal it was > 100 µM; in the assay on LOX IMVI melanoma, > 100 µM; with OVCAR-5 ovarian, > 100 µM. The TGI was 94.2 µM with NCI/ADR-RES ovarian, > 100 µM with NCI-H522 lung, > 100 µM in the assay on T-47D breast and > 100 µM in the assay with SF-268 CNS.
